From US11161852B1 (Halia Therapeutics, Inc., priority 2020, dated 2021)

How the values were obtained:
[1] = test system: IL-1β release from THP-1 cells; test: IL-1β Release Assay (PMA-differentiated THP-1 cells, LPS + nigericin); format: cell-based; conditions: Homo sapiens, 250 ng/mL LPS, 20 μM nigericin
Procedure: Approximately 1.5 million THP-1 cells were plated in each well of a 6-well TC plate and incubated with 40 nM PMA in RPMI (10% FBS, 1% Penstrep) for 24 hours. The media was then removed and cells were rested in RPMI (10% FBS, 1% Penstrep) for 24 hours after which time the media was removed and cells were pre-treated for 2 hours with various concentrations of compounds of interest (typically serial 3-fold dilution in RPMI+5% FBS, concentrations ranging from 1 μM to 0.5 nM) in RPMI (5% FBS). The media was again removed and cells were incubated with 250 ng/mL LPS and compounds of interest (concentrations as above) in RMPI (5% FBS) for 2 hours. The media was removed for a last time and cells were incubated with 20 μM nigericin and compounds of interest (concentrations as above) in Opti-MEM for 30 minutes. Cell media was then collected and the amount of cleaved IL-1β was determined using a JESS instrument (Protein Simple) and standard protocols. Cleaved Il-1β antibody was obtained from Cell Signaling (catalogue #83186S) and was used at 1:20 dilution in antibody diluent 2. Protein Simple 1× anti-Rabbit HRP secondary antibody was used along with Protein Simple luminol and peroxide for chemiluminescent detection. Primary antibody incubation time was increased from 30 minutes to 60 minutes.

[2] = target: full-length recombinant human NEK7 (Homo sapiens (Human), UniProt Q8TDX7); test: NEK7 Enzymatic Assay ([33P]-ATP, casein substrate); format: biochemical
Sequence of full-length recombinant human NEK7 (Q8TDX7 whole entry): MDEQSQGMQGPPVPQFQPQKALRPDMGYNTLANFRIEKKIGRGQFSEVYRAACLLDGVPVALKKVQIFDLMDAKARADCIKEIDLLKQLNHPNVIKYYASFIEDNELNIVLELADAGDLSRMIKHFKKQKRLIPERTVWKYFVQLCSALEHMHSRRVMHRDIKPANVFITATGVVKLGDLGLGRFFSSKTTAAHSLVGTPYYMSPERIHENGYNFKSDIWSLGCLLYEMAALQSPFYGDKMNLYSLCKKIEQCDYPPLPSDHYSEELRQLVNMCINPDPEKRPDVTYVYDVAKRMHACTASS
Procedure: Casein substrate (from bovine milk, hydrolyzed and partially dephosphorylated mixture of α, β and a caseins, obtained from Sigma Aldrich, catalogue #C4765, diluted in distilled water to a final concentration of 1 mg/mL) and full-length recombinant human NEK7 (expressed by baculovirus in Sf9 insect cells using a N-terminal GST tag, obtained from SignalChem, catalogue #N09-10G, 0.1 μg/μL) were mixed in assay buffer (20 mM Hepes pH 7.5, 10 mM MgCl2, 1 mM EGTA, 0.02% Brij35, 0.02 mg/ml BSA, 0.1 mM Na3VO4, 2 mM DTT, 1% DMSO). Compounds of interest (serial 3-fold dilution in DMSO from 10 μM to 0.5 nM) or vehicle (1% DMSO) were dispensed into the kinase reaction mixture by Acoustic technology (Echo550; nanoliter range). After incubation at room temperature for 20 minutes, the kinase reaction was initiated by addition of [^33P]-ATP (specific activity […]) and the mixture was incubated at room temperature for 2 hours. The reaction was then stopped by spotting the reaction mixture on strips of phosphocellulose P81 paper. Following washing, the radioactivity of the P81 paper was measured and kinase activity data were expressed as the percent remaining kinase activity in test samples compared to vehicle reactions. IC50 values and curve fits were obtained using Prism (GraphPad Software).

Structure (SMILES)	IC50 [1] [nM]	IC50 [2] [nM]
CC(C)(O)Cn1cc(-c2ccc(NC(=O)Nc3cc(C4(C(F)(F)F)CC4)no3)c(F)c2)c2c(N)ncnc21 [Example 14, 1-(4-(4-amino-7-(2-hydroxy-2-methylpropyl)-7H-pyrrolo[2,3-d]pyrimidin-5-yl)-2-fluorophenyl)-3-(3-(1-(trifluoromethyl)cyclopropyl)isoxazol-5-yl)urea]	< 150	151 to 300
CC(C)(C)c1cc(NC(=O)Nc2ccc(-c3cn(C4CC4)c4ncnc(N)c34)cn2)on1 [Example 3, 1-(5-(4-amino-7-cyclopropyl-7H-pyrrolo[2,3-d]pyrimidin-5-yl)pyridin-2-yl)-3-(3-(tert-butyl)isoxazol-5-yl)urea]	151 to 300	< 150
Nc1ncnc2c1c(-c1ccc(NC(=O)Nc3cc(C4(C(F)(F)F)CC4)no3)nc1)cn2C1CC1 [Example 37, 1-(5-(4-amino-7-cyclopropyl-7H-pyrrolo[2,3-d]pyrimidin-5-yl)pyridin-2-yl)-3-(3-(1-(trifluoromethyl)cyclopropyl)isoxazol-5-yl)urea]	< 150	< 150
Nc1ncnc2c1c(-c1ccc(NC(=O)Nc3cc(C4(C(F)(F)F)CC4)on3)c(F)c1)cn2C1CC1 [Example 10, 1-(4-(4-amino-7-cyclopropyl-7H-pyrrolo[2,3-d]pyrimidin-5-yl)-2-fluorophenyl)-3-(5-(1-(trifluoromethyl)cyclopropyl)isoxazol-3-yl)urea]	< 150	151 to 300
CC(C)(C#N)c1cc(NC(=O)Nc2ccc(-c3cn(C4CC4)c4ncnc(N)c34)cc2F)on1 [Example 35, 1-(4-(4-amino-7-cyclopropyl-7H-pyrrolo[2,3-d]pyrimidin-5-yl)-2-fluorophenyl)-3-(3-(2-cyanopropan-2-yl)isoxazol-5-yl)urea]	151 to 300	151 to 300
Cc1cc(-c2cn(C3CC3)c3ncnc(N)c23)ccc1NC(=O)Nc1cc(C2(C(F)(F)F)CC2)no1 [Example 38, 1-(4-(4-amino-7-cyclopropyl-7H-pyrrolo[2,3-d]pyrimidin-5-yl)-2-methylphenyl)-3-(3-(1-(trifluoromethyl)cyclopropyl)isoxazol-5-yl)urea]	301 to 500	501 to 1500
CC(C)(F)c1cc(NC(=O)Nc2ccc(-c3cn(C4CC4)c4ncnc(N)c34)cc2F)on1 [Example 9, 1-(4-(4-amino-7-cyclopropyl-7H-pyrrolo[2,3-d]pyrimidin-5-yl)-2-fluorophenyl)-3-(3-(2-fluoropropan-2-yl)isoxazol-5-yl)urea]	151 to 300	< 150
